“Also recorded” adds a separate entry of the source.
Experiments:
DNA [1] = experiment: Detection of DNA binding by the compounds (Table 2); settings: yes = binding detected, empty cells not reported
RNA = experiment: Detection of RNA binding by the compounds (Table 2); settings: yes = binding detected, empty cells not reported
Calf Thymus DNA (CT-DNA) = experiment: Increase in fluorescence upon binding with Calf Thymus DNA; settings: figure legends FIG. 12-22
Description: 1 mg/ml stock solutions of all the compounds were prepared in DMSO. Few insoluble compounds were then dissolved in non-polar solvent. 10 ul (1 mg/ml) of each of the compounds were used to do an absorbance scan in the TECAN nano reader and the graphs were plotted. The absorbance peaks for each of the compounds were tabulated and further used as excitation wavelength for fluorescence scans. Initially an absorbance scan was performed to identify the excitation maxima after which the excitation wavelength was used to obtain the emission maxima/fluorescence plots. Once the excitation and emission maxima were known, different concentrations of the compounds were used starting from 10 ng to saturating concentrations to obtain fluorescent spectra. Similarly, a fixed concentration of the compound was used to which an increasing concentration of DNA/RNA was added until saturation to find the nucleic acid binding properties of the dyes and compounds. In addition, a fixed concentration of DNA/RNA was used, to which increasing concentrations of the compounds were added until saturation. The data obtained was plotted and used for calculating binding constants and determining the binding ability of the dyes and compounds. 1 mg/ml stock solutions of all compounds the were prepared in DMSO. Few insoluble compounds were then dissolved in nonpolar solvent. 10 ul (1 mg/ml) of each of the compounds were used to do an absorbance scan in the TECAN nano reader and the graphs were plotted. The absorbance peaks for each of the compounds were tabulated and further used as excitation wavelength for fluorescence scans. Initially an absorbance scan was performed to identify the excitation maxima after which the excitation wavelength was used to obtain the fluorescence plots. Once the excitation and emission maxima were known, different concentrations of the compounds were used starting from 10 ng to saturating concentrations to obtain fluorescent spectra. Similarly, a fixed concentration of the said compound was used to which an increasing concentration of DNA/RNA was added until saturation to find the nucleic acid binding properties of the dyes and compounds. In addition, a fixed concentration of DNA/RNA was used, to which increasing concentrations of the compounds were added until saturation. The data obtained was plotted and used for calculating binding constants and determining the binding ability of the dyes and compounds.

DNA [2] = experiment: Emission maxima with DNA; format: binding; settings: Table 6
Description: The absorbance peaks for each of the compounds were tabulated and further used as excitation wavelength for fluorescence scans. Initially an absorbance scan was performed to identify the excitation maxima after which the excitation wavelength was used to obtain the emission maxima/fluorescence plots. Once the excitation and emission maxima were known, different concentrations of the compounds were used starting from 10 ng to saturating concentrations to obtain fluorescent spectra. Similarly, a fixed concentration of the compound was used to which an increasing concentration of DNA/RNA was added until saturation to find the nucleic acid binding properties of the dyes and compounds. In addition, a fixed concentration of DNA/RNA was used, to which increasing concentrations of the compounds were added until saturation. The data obtained was plotted and used for calculating binding constants and determining the binding ability of the dyes and compounds.
(§1) 1 mg/ml stock solutions of all compounds the were prepared in DMSO. Few insoluble compounds were then dissolved in nonpolar solvent. 10 ul (1 mg/ml) of each of the compounds were used to do an absorbance scan in the TECAN nano reader and the graphs were plotted. The absorbance peaks for each of the compounds were tabulated and further used as excitation wavelength for fluorescence scans. Initially an absorbance scan was performed to identify the excitation maxima after which the excitation wavelength was used to obtain the fluorescence plots. Once the excitation and emission maxima were known, different concentrations of the compounds were used starting from 10 ng to saturating concentrations to obtain fluorescent spectra. Similarly, a fixed concentration of the said compound was used to which an increasing concentration of DNA/RNA was added until saturation to find the nucleic acid binding properties of the dyes and compounds. In addition, a fixed concentration of DNA/RNA was used, to which increasing concentrations of the compounds were added until saturation. The data obtained was plotted and used for calculating binding constants and determining the binding ability of the dyes and compounds.

[3] = Absorbance and fluorescence scans (excitation and emission maxima); format: physicochemical; design: unit not given here; settings: compound alone; Table 6
Description: 1 mg/ml stock solutions of all the compounds were prepared in DMSO. Few insoluble compounds were then dissolved in non-polar solvent. 10 ul (1 mg/ml) of each of the compounds were used to do an absorbance scan in the TECAN nano reader and the graphs were plotted.
The absorbance peaks for each of the compounds were tabulated and further used as excitation wavelength for fluorescence scans. Initially an absorbance scan was performed to identify the excitation maxima after which the excitation wavelength was used to obtain the emission maxima/fluorescence plots. Once the excitation and emission maxima were known, different concentrations of the compounds were used starting from 10 ng to saturating concentrations to obtain fluorescent spectra. Similarly, a fixed concentration of the compound was used to which an increasing concentration of DNA/RNA was added until saturation to find the nucleic acid binding properties of the dyes and compounds. In addition, a fixed concentration of DNA/RNA was used, to which increasing concentrations of the compounds were added until saturation. The data obtained was plotted and used for calculating binding constants and determining the binding ability of the dyes and compounds. […]
as §1

RNA of E. coli BL21 = experiment: Working concentration of compound (25) for RNA detection, agarose gel electrophoresis; format: binding; settings: 10-50 ng RNA with 5, 10, 20, 40 ng of compound 25; 1% agarose gel, TBE buffer
Description: To check the working concentration of compound (25) using different concentrations of RNA, RNA of E. coli BL21 was isolated and diluted to 10 ng/μl from the stock. Using a TBE buffer 1% agarose gel was casted and gel electrophoresis is performed using 10-50 ng concentration of RNA with 5, 10, 20, 40 ng of compound 25.

Protein = experiment: Detection of protein binding by the compounds (Table 2); settings: yes = binding detected, empty cells not reported
Source text: Absorbance Spectra and Fluorescence Spectra conditions for compound+DNA/RNA/Protein Methods of experimentation: An Excitation Max: 488 nm, Emission Max: 560 nm, Band width: 488-600 nm on Alexa Fluor 488 channel were used for flow cytometry and microscopic determinations TECAN spectrofluorimeter.

[4] = Comparison with commonly available DNA staining agents: toxicity (Table 3); settings: Hoescht and DAPI cells wrap: 'Potentially carcinogenic & Mutagenic'
[5] = Comparison with commonly available DNA staining agents: photostability (Table 3); format: physicochemical
double-stranded DNA = settings: when bound; cited from earlier work

SMILES | DNA (binding detected) (DNA [1]) | RNA (binding detected) (RNA) | increase in fluorescence upon binding with Calf Thymus DNA (CT-DNA) (Calf Thymus DNA (CT-DNA)) [fold] | Emission maxim with DNA (DNA [2]) [nm] | Emission maxima [3] | Excitation Maxima [3] | also measured
COc1cc(/C=C2\COc3cc(O)ccc3C2=O)ccc1O [Compound 007] | yes | Yes | 25 | – | – | – | –
COc1ccc2c(c1)OC/C(=C\c1ccc(OC)c(OC)c1)C2=O [Compound 009] | – | yes | 15 | – | – | – | –
O=C1/C(=C/c2ccc(O)c(O)c2)COc2cc(O)ccc21 [Compound 015] | yes | yes | – | 610 | 570 | 490 | –
Cc1ccc2c(c1)OC/C(=C\c1ccc(C)c(C)c1)C2=O [Compound 016] | yes | – | 5 | 610 | 610 | 490 | –
Oc1ccc2c(c1)OC[C@](O)(Cc1ccc(O)c(O)c1)[C@H]2O [Compound 017] | yes | yes | > 1000 | – | – | – | –
O=C1C=C2C(=C[C@@]3(O)COc4cc(O)ccc4[C@@H]23)C=C1O [Compound 019] | yes | – | > 1000 | 570 | 570 | 490 | –
COc1ccc2c(c1)SCC1=C2c2cc(OC)c(OC)cc2C1 [Compound 021] | – | yes | – | – | – | – | –
CN1C/C(=C\c2ccc(O)c(O)c2)C(=O)c2ccc(O)cc21 [Compound 025] | – | yes | > 1000 | – | – | – | RNA bands on gel (RNA of E. coli BL21): bands are in all the wells
Cc1ccc(C)cc1 [Compound 026] | yes | yes | – | 590 | 580 | 490 | –
CCc1cc(O)ccc1C(=O)/C=C/C1=CC(OC)C(O)C=C1 (centres unmarked) [Compound 031] | – | yes | – | 610 | 610 | 490 | –
Cc1cc2c(cc1O)OC[C@]1(O)Cc3cc(O)c(O)cc3[C@H]21 [Compound 032] | – | – | – | 570 | 570 | 490 | –
Oc1ccc2c(c1)OC[C@]1(O)Cc3cc(O)c(O)cc3[C@H]21 [Compound 033] | yes | yes | > 1000 | – | – | – | –
Oc1cc2c(cc1O)[C@@H]1c3cc(-c4ccccc4)c(O)cc3OC[C@]1(O)C2 [Compound 035] | – | yes | > 1000 | 580 | 580 | 490 | Protein (binding detected) (Protein): yes
Oc1cc2c(cc1O)[C@@H]1c3cc(-c4ccc(F)cc4)c(O)cc3OC[C@]1(O)C2 [Compound 037] | yes | yes | > 1000 | – | – | – | Protein (binding detected) (Protein): yes
COc1cc2c(cc1OC)[C@@H]1c3cc(-c4ccccc4)c(OC)cc3N(S(=O)(=O)c3ccc(C)cc3)C[C@]1(O)C2 [Compound 038] | – | yes | 2 | – | – | – | –
Cc1ccc(S(=O)(=O)N2C[C@]3(O)Cc4cc(O)c(O)cc4[C@@H]3c3cc(-c4ccc(F)cc4)c(O)cc32)cc1 [Compound 039] | yes | – | – | – | – | – | –
N=C(N)c1ccc(-c2cc3ccc(C(=N)N)cc3[nH]2)cc1 [DAPI] | – | – | – | – | – | – | Toxicity [4]: carcinogenic; also recorded: & Mutagenic; Photostability [5]: 10 min
CCCN(CCCN(C)C)c1cc(/C=C2/Sc3ccccc3N2C)c2ccccc2[n+]1-c1ccccc1 [SYBR Green] | – | – | – | – | – | – | absorbs at a wavelength (double-stranded DNA): around 497 nm; emits fluorescence (double-stranded DNA): around 530 nm
